Measurements reported in patent publication EP4678629A1, “IONIZABLE LIPID MOLECULE, PREPARATION METHOD THEREFOR AND USE THEREOF” (Maxirna (Shanghai) Pharmaceutical Co., Ltd., priority 2023, dated 2024).

Key:
[1] = Encapsulation efficiency of the lipid nanoparticle (eGFP mRNA) by Ribogreen method; assay type: physicochemical; conditions: LNP encapsulating eGFP mRNA, ionizable lipid/DOPE/cholesterol/DMG-PEG2000 50/10/48.25/1.25 mol%, N/P 12
How it was run: (§1)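 LNPs were made by microfluidic mixing of ionizable lipid/DOPE/cholesterol/DMG-PEG2000 (50/10/48.25/1.25 mol%) in ethanol with eGFP mRNA in 20 mM citrate pH 6.1, N/P 12, then ultrafiltered into DPBS and 0.2 µm filtered. Size and PDI by DLS at 173° backscatter; encapsulation by Ribogreen.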

[2] = In vitro transfection of cells with eGFP-mRNA lipid nanoparticle (LNP preparation), fluorescence imaging and flow cytometry; assay type: cell-based, mouse; conditions: mouse, dc2.4 cells, 200 ng of mRNA per well, after 24 hours; read-out: Cell viability, %
How it was run: (§2)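 Mouse bone marrow-derived DC2.4 dendritic cells seeded at 2 × 10^5 cells/well in DMEM with 10% FBS, transfected with eGFP-mRNA LNPs the next day at 37 °C, 5% CO2. After 24 hours, viability, eGFP-positive rate and mean fluorescence intensity read by fluorescence imaging and flow cytometry.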

DC2.4 cells = assay: as above; assay type: cell-based, mouse; conditions: DC2.4 cells, 200 ng of mRNA per well, after 24 hours; for Positive rate, %: eGFP positivity rate
How it was run: as §2

[3] = Size and polydispersity index (PDI) of the lipid nanoparticle by dynamic light scattering; assay type: physicochemical; conditions: LNP encapsulating eGFP mRNA, ionizable lipid/DOPE/cholesterol/DMG-PEG2000 50/10/48.25/1.25 mol%, N/P 12; for Particle size: in nm (unit assumed)
How it was run: as §1

mice = assay: In vivo transfection with Fluc-mRNA lipid nanoparticle (LNP preparation), live imaging of fluorescence intensity; conditions: 0.5 mg/kg; for fluorescence intensity: intravenous and intramuscular injection
Description: According to the method described in Example II , LNP lipid nanoparticles of Fluc-mRNA (Maxirna FLuc mRNA, 1 mg/mL), SM-102 (CAS number: 2089251-47-6, A.V.T (Shanghai) Pharmaceutical Co., Ltd.), and positive control 1 (US10195156B2, it was prepared according to the method described in the above embodiment, the main difference lay in replacing 2-((3-aminopropyl)amino)ethane-1-ol with 2-((2-aminoethyl)amino)ethane-1-ol, the structure was as shown in FIG. 1) were prepared respectively. Cholesterol (Chol), DSPC, DOPE, and DMG-PEG2000 were purchased from A.V.T (Shanghai) Pharmaceutical Co., Ltd. Mice were randomly selected, and the lipid nanoparticles were injected intravenously and intramuscularly (4 mice per group) at a dosage of 0.5 mg/kg. Tris and Fluc-mRNA were directly injected as controls. After 6 hours, 200 ul of 10 mg/ml D-luciferin potassium salt was respectively injected into each mouse through the tail vein. After 10 minutes, the mice were placed under a live imaging system to observe the total fluorescence intensity of each mouse and take photos for recording. After 24 hours, the mice were placed under the live imaging system to observe the total fluorescence intensity of each mouse and take photos for recording. Table 2: Preparation parameters of each LNP
(§3) LNP lipid nanoparticles of Fluc-mRNA were respectively prepared using the method described in Example II. Mice were randomly selected, and the lipid nanoparticles were injected intramuscularly (2 mice per group) at a dosage of 0.5 mg/kg. Tris was directly injected as a control. After 6 hours, 200 ul of 10 mg/ml D-luciferin potassium salt was respectively injected into each mouse through the tail vein. After 10 minutes, the mice were placed under a live imaging system to observe the total fluorescence intensity of each mouse and take photos for recording. After 24 hours, the mice were placed under the live imaging system to observe the total fluorescence intensity of each mouse and take photos for recording. Table 3: Preparation parameters of each LNP
as §3, with “II .” for “II.”, “(3” for “(2”, “4:” for “3:”

[4] = Fluc-mRNA LNP of Table 3 (DSPC), intramuscular, 6 and 24 hours
[5] = Fluc-mRNA LNP of Table 2 (DOPE), intramuscular
[6] = Fluc-mRNA LNP of Table 2 (DOPE), 6 and 24 hours
[7] = Fluc-mRNA LNP of Table 4 (DSPC), intramuscular, 6 and 24 hours

SMILES	Encapsulation rate, % [1] [%]	viability at 24 h [2] [%]	Positive rate, % (DC2.4 cells) [%]	PDI [3]	Particle size [3]	whole-body expression (mice; [4])	fluorescence intensity, intramuscular injection administration (mice; [5])	fluorescence intensity (mice; [6])	expression in the chest and abdomen (mice; [5])	Cell viability, % (DC2.4 cells; 1440 min) [%]	injection site (mice; [7])	whole-body expression (mice; [7])
CCCCCCCCCCCOC(=O)CCCCCCCN(CCO)CCCN(CCCCCCCC(=O)OCCCCCCCCCCC)CCCCCCCC(=O)OCCCCCCCCCCC [Example 1, Diundecyl 8,8'-((3-((2-hydroxyethyl)(8-oxo-8-(undecyloxy)octyl)amino)propyl)azanediyl)dioctanoate]	96.32	92	91.23	0.18	59.34	even better than SM-102						
CCCCCCCCCCCOC(=O)CCCCCN(CCO)CCCN(CCCCCC(=O)OCCCCCCCCCCC)CCCCCC(=O)OCCCCCCCCCCC [Example 11, Diundecyl 6,6'-((3-((2-hydroxyethyl)(6-oxo-6-(undecyloxy)hexyl)amino)propyl)azanediyl)dihexanoate]	90.99	84.3	95.68	0.17	97.96		still maintain high fluorescence intensity	stronger than that of positive control 1 and comparable to SM-102				
CCCCCCCCCCCOC(=O)CCCN(CCO)CCCN(CCCC(=O)OCCCCCCCCCCC)CCCC(=O)OCCCCCCCCCCC [Example 12, Diundecyl 4,4'-((3-((2-hydroxyethyl)(4-oxo-4-(undecyloxy)butyl)amino)propyl)azanediyl)dibutanoate]	90.54	81.2	97.78	0.22	88.51	even better than SM-102	still maintain high fluorescence intensity	stronger than that of positive control 1 and comparable to SM-102	much lower than that of SM-102			
CCCCC/C=C\C/C=C\CCCCCCCCOC(=O)CCCN(CCCO)CCCCN(CCCC(=O)OCCCCCCCC/C=C\C/C=C\CCCCC)CCCC(=O)OCCCCCCCC/C=C\C/C=C\CCCCC [Example 89]	94.22		92.26	0.09	96.38					94.0	superior to those of positive control 1 and SM-102	superior to those of positive control 1 and SM-102
